row,SMILES,logP
1,COc1ccc(Br)cc1Cc1cnc(N)nc1N,2.44
2,COc1ccc(Cc2cnc(N)nc2N)cc1Br,1.88
3,COc1ccc(Cc2cnc(N)nc2N)cc1N(C)C,1.68
4,Nc1ncc(Cc2ccccc2)c(N)n1,1.54
5,COc1ccccc1Cc1cnc(N)nc1N,1.75
6,CCCOc1cc(Cc2cnc(N)nc2N)ccc1OC,1.88
7,CCOc1cc(Cc2cnc(N)nc2N)c(Br)c(OCC)c1OCC,1.81
8,COc1ccc(Cc2cnc(N)nc2N)cc1C(C)C,2.79
9,COc1ccc(Cc2cnc(N)nc2N)cc1I,2.09
10,CCOc1ccc(Cc2cnc(N)nc2N)cc1OC,1.34
11,CCCOc1cc(Br)c(Cc2cnc(N)nc2N)cc1OC,2.84
12,COc1cc(Cc2cnc(N)nc2N)ccc1N,0.49
13,CCOc1cc(Cc2cnc(N)nc2N)c(I)c(OCC)c1OCC,2.9
14,CCCOc1ccc(Cc2cnc(N)nc2N)cc1OC,2.02
15,CCOc1cc(Br)c(Cc2cnc(N)nc2N)cc1OC,2.18
16,COc1ccc(I)cc1Cc1cnc(N)nc1N,2.7
17,CN(C)c1ccc(Cc2cnc(N)nc2N)cc1,1.82
18,CCOc1ccc(Cc2cnc(N)nc2N)cc1OCC,1.72
19,COc1ccc(Cc2cnc(N)nc2N)cc1N,0.76
20,CCOc1cc(Cc2cnc(N)nc2N)c(Br)cc1OC,1.86

row,SMILES,logP
1,COc1ccc(Cc2cnc(N)nc2N)cc1,1.34
2,COc1c(Br)c(Cc2cnc(N)nc2N)c(Br)c(OC)c1OC,1.73
3,COc1cc(Cc2cnc(N)nc2N)ccc1N(C)C,1.87
4,COc1cc(Cc2cnc(N)nc2N)ccc1Nc1ccccc1,3.42
5,COc1ccc(Cc2cnc(N)nc2N)cc1C,1.91
6,COc1cc(Cc2cnc(N)nc2N)c(Br)cc1Br,3.17
7,COc1cc(Cc2cnc(N)nc2N)ccc1Cl,1.87
8,COc1ccc(Cc2cnc(N)nc2N)cc1Nc1ccccc1,2.88
9,COc1ccc(Cc2cnc(N)nc2N)cc1Oc1ccccc1,2.12
10,CCN(CC)c1cc(Cc2cnc(N)nc2N)ccc1OC,2.43
11,COc1cc(Cc2cnc(N)nc2N)ccc1C(C)C,3.14
12,CCCOc1cc(Cc2cnc(N)nc2N)c(Br)cc1OC,2.31
13,COc1cc(Cc2cnc(N)nc2N)ccc1Oc1ccccc1,2.49
14,COc1cc(Cc2cnc(N)nc2N)c(Br)c(OC)c1OC,1.66
15,CCOc1cc(Cc2cnc(N)nc2N)cc(OCC)c1OCC,2.08
16,COc1cc(Br)c(Cc2cnc(N)nc2N)cc1OC,1.64
17,COc1ccc(Cc2cnc(N)nc2N)cc1F,1.08
18,COc1cc(Cc2cnc(N)nc2N)ccc1OC1CCCC1,2.65
19,CCOc1cc(Cc2cnc(N)nc2N)ccc1OC,1.2
20,COc1ccc(Br)c(Cc2cnc(N)nc2N)c1,2

# Source: the SangsterLogP compilation
